Results as given in patent publication US12037350B2, “Compositions and methods for the prevention and/or treatment of mitochondrial disease, including Friedreich's ataxia” (Stealth BioTherapeutics Inc., priority 2020, dated 2024).

Key:
[1] = tested on: GM03665 cells (fibroblasts from a subject with Friedreich's ataxia); assay: RSL-3 Toxicity Assay (RSL-3 Assay); type: cell-based, human; conditions: Homo sapiens, Fibroblast; GM03665 cells, RSL-3 2 μM, 24 hours, MTT
Text: Example 14: RSL-3 Toxicity Assay (RSL-3 Assay)
This assay has been adapted from: Hinman, A., Holst, C. R., Latham, J. C., Bruegger, J. J., Ulas, G., McCusker, K. P., Amagata, A., Davis, D., Hoff, K. G., Kahn-Kirby, A. H., Kim, V., Kosaka, Y., Lee, E., Malone, S. A., Mei, J. J., Richards, S. J., Rivera, V., Miller, G., Trimmer, J. K., Shrader, W. D., “Vitamin E hydroquinone is an endogenous regulator of ferroptosis via redox control of 15-lipoxygenase”, (2018) PLoS ONE 13(8): e0201369.
In brief, GM03665 cells (Coriell Institute) were seeded in 96-well plates (Sarstedt) in DMEM cell culture media containing 10% Fetal Bovine serum and 1% Penicillin-Streptomycin (Pen-Strep) antibiotic mix at the amount of 2×10^4/mL (100 μL or 2×10^3 cells per well). Cells were left to rest overnight at 37° C. in a humidified atmosphere with 5% CO2 to allow attachment of the cells to the culture plate. Test compounds were prepared as DMSO stocks (10 mM) and were serially diluted in cell culture media to obtain 2× working solutions. Cell media was discarded and replaced by 50 μL of test compound solutions or cell media with vehicle for control wells. Within 15 minutes, 2× working solution (4 μM) of 1S,3R-RSL-3 (CAS #1219810-16-8, Sigma-Aldrich) (diluted from 5 mM DMSO stock in cell culture media) was added. Final reaction volume was 100 μL and final DMSO concentration in reaction was kept below 0.2% (v/v) and equal in all wells. Final RSL-3 concentration was 2 μM and test compound final concentrations in reaction were up to 1000 nM. After 24 hours of incubation cell viability was assessed by MTT test. MTT (Sigma-Aldrich) solution 1 mg/mL in IX PBS (pH=7.4) was prepared 1 hour before the assay and filtered through Filtropur S 0.2 filters (Sarstedt). Cell media with test compounds was discarded and 100 μL of MTT solution was added to cells. The plates were incubated for 2 hours at +37° C. Thereafter, the MTT solution was removed and 100 μL of isopropanol was added to dissolve sediment. Absorption at 570 and 650 nm was measured using Hidex Sense microplate reader.
Compounds A and B and idebenone were not examined in this assay. The data presented in Table 1 indicates omaveloxolone was not active in this assay but that vatiquinone was active.
Discussion—Both BSO and RSL-3 are frequently utilized to induce the regulated cell death pathway known as ferroptosis. Ferroptosis is thought to require the joint activity of iron catalyzed oxidative stress and lipid peroxidation and has been described in cell and animal models of multiple neurodegenerative diseases, including Friedreich's Ataxia, Huntington Disease, Parkinson Disease and Alzheimer's Disease. […] Of note, the results for Compounds C-I and K were favorable with respect to inhibition of ferroptotic cell death when either BSO or RSL3 were used as initiating stimulus, differentiating these compounds from omaveloxolone and idebenone.

HepG2 cells = assay: Rotenone Oxygraph Assay (high-resolution respirometry of intact HepG2 cells); type: cell-based, human; conditions: Homo sapiens; intact HepG2 cells, rotenone 1 μM, compound 10 μM, increase in respiration rate
Method: Example 15: Rotenone Oxygraph Assay (High-Resolution Respirometry of Intact HepG2 Cells)
The Oxygraph-2k (O2k, OROBOROS INSTRUMENTS, Austria) was used for measurements of respiration of intact cells. The respirometry was performed in Dulbecco's Modified Eagle Medium (DMEM) high glucose without supplements. All experiments were performed at 37° C.
HepG2 cells (ATCC collection code HB-8065™) were cultured in 10 cm^2 culture dishes in DMEM high glucose medium supplemented with 10% fetal bovine serum (FBS) and 100 units/mL penicillin and 100 μg/mL streptomycin until approximately 90% confluence was reached. Immediately prior to performing the respirometric assay, the cells were washed with media without FBS, trypsinized and resuspended in DMEM high glucose without FBS.
The final concentration of intact cells in the O2k-chamber was 0.5-10^6/mL. After stabilization of respiration, the Complex I inhibitor, rotenone, at 1 μM final concentration was added to inhibit electron flux via Complex I. Then, compound to be tested was added at 10 μM final concentration, and the change in respiration rate of intact cells was monitored. […]

[2] = tested on: frataxin deficient fibroblasts (GM03665) from Friedreich's ataxia patient; assay: Frataxin Deficient Fibroblast Viability Assay (BSO Assay); type: cell-based; conditions: for EC50: Homo sapiens, Fibroblast, FA patient fibroblasts pretreated with compound, BSO 10 mM, MTT after 48 hrs
Method: Example 12: Frataxin Deficient Fibroblast Viability Assay (the “BSO Assay”)
This Example was used to evaluate the various new compositions for their potential efficacy in the treatment of Friedreich's Ataxia (FA or FRDA)—substantially as described in the above cited Reference (Matthias et al.).
The stock solutions of the test articles (and control compounds) were prepared in dimethyl sulfoxide (DMSO at 10 mM), Working stock solutions (2 times concentrated) were prepared on the day of the experiment in respective cell culture medium to be used for assay (detailed medium description below). A listing of compounds used as test articles in this Example 12 are found in Table 1, below.
A patient derived frataxin deficient fibroblast cell line was obtained from Coriell Institute. More specifically, the following cell lines/DNA samples were obtained from the NIGMS Human Genetic Cell Repository at the Coriell Institute for Medical Research: GM03665. To evaluate importance of various growth conditions on cell susceptibility to BSO toxicity cells were grown on:
MEM (Sigma-Aldrich) 15% Fetal Bovine Serum (FBS) without growth factors;
MEM (Sigma-Aldrich) 15% FBS with growth factors (Catalogue number 100-18B, Recombinant Human FGF-basic (154 a.a.) and catalogue number AF-100-15, Animal-Free Recombinant Human EGF from Peprotech);
MEM199/MEM EBS (Bioconcept Ltd.) 10% FBS, insulin 10 μg/ml, L-glutamine 2 mM with growth factors (Catalogue number 100-18B, Recombinant Human FGF-basic (154 a.a.) and catalogue number AF-100-15, Animal-Free Recombinant Human EGF from Peprotech).
To conduct an experiment, fibroblast cells (from all growth conditions) were seeded (100 μL (cells 3×10^3/well) on 96-well plates in MEM199/MEM EBS medium 10% FBS, insulin 10 μg/mL, L-glutamine 2 mM with growth factors and allowed to grow on plate for 24 hrs. After 24 hrs., media was removed and then test compounds of interest were added (100 μL, 2 times concentrated stock) to 96-well plates (end DM80 concentration not exceeding 0.5%) and incubated for 24 hours. Then L-buthionine-sulfoximine (BSO, from Acros Organics, Cat. No. 235520010) was added (100 μL, 2 times concentrated stock) at end concentrations ranging from 1 to 10 mM. Both test compounds and BSO were dissolved in MEM199/MEM EBS medium 10% FBS, insulin 10 μg/mL, L-glutamine 2 mM with growth factors. Cell viability was monitored and either after 24- or 48-hours cell viability was assayed by MTT (Thiazolyl blue tetrazolium bromide) assay. For the MTT assay, media was removed and 100 μL of MTT 1 mg/mL was added, incubated for 2 hours at +37° C., then medium was removed and 100 μL of isopropanol added to dissolve sediment. Absorption was measured at 570 (OD570) and 650 (QD650) nm wavelengths. Control cells (vehicle instead of BSO and compound) and vehicle control (with BSO, but vehicle instead of test compound) were treated in the same manner as ceils with BSO and compound. All cell media contained penicillin and streptomycin 100 U/mL each.
Absorption readouts were processed as follows: ValueΔ=ValueOD570−ValueOD650 and the obtained values were used to calculate cell viability as % of control cell (i.e., no BSO, no compound, just vehicle) viability.
Except as otherwise indicated in Table 1, all samples were run in at least 3 replicates for test compounds and at least 8 replicates for controls (i.e., both control (no BSO, no compound) and vehicle control (i.e., with BSO, no compound). Exact N per data points are indicated in the figures/table legends. Results for the compounds (test articles and controls) tested are listed in Table 1, below.
This is a cell-based assay measuring cytotoxicity which results from oxidative stress subsequent to depletion of endogenous glutathione defense mechanisms. The cells were primary Friedreich Ataxia (FA) patient fibroblasts which were incubated for 48 hrs. in BSO, an inhibitor of gamma glutamyl synthetase, an enzyme required for glutathione production. […]

[3] = tested on: HepG2 human hepatocarcinoma cells; assay: Rotenone ATP Assay (Complex I by-pass assay); type: cell-based
Method: Example 13: Rotenone ATP Assay (a Complex I by-Pass Assay)
This assay has been adapted from Haefeli R H, Erb M, Gemperli A C, Robay D, Courdier Fruh I, et al. (2011) NQO1-Dependent Redox Cycling of Idebenone: Effects on Cellular Redox Potential and Energy Levels. PLoS ONE 6(3): e17963. HepG2 human hepatocarcinoma cells are co-incubated with the electron transport chain complex I toxin rotenone +/− compounds of interest and the corresponding effect on ATP synthesis is measured with a bioluminescent substrate.
The stock solutions of the test articles (See Table 1, below for a list of the test articles examined using this assay) were prepared in dimethyl sulfoxide (DMSO at 10 mM). Working stock solutions were prepared on the day of the experiment in glucose free, serum free Dulbecco's modified Eagles medium (DMEM) supplemented with 50 micromolar rotenone.
In brief, HepG2 cells were plated at 25,000 cells per well in low glucose (1 gram/Liter) DMEM medium+10% fetal calf serum and incubated for 24 hours. The following day, the media was decanted and subsequently replaced with glucose free/serum free DMEM which has been supplemented with 50 micromolar rotenone and compound of interest. Serial dilutions of compound were prepared in 3× dilutions beginning at 25 micromolar. The cells were incubated for 60 minutes in a humidified tissue culture incubator. Following incubation, ATP levels were quantified via bioluminescent assay (Promega […] Glo Assay kit) and readings were captured on a standard microplate reader.
ATP bioluminescence is plotted versus the log of compound of interest and data are used to generate EC50 values. Curve fitting is performed using a sigmoidal dose response curve fit function (GraphPad Prism software).
EC50 values were derived from seven-point dose response curves performed on n=3 technical replicates per dose. Robustness of curve fit was assessed as a quality control measure, with an R squared value of at least 0.80 being required for a successful curve fit. Compounds of interest showing an increase in ATP bioluminescence relative to vehicle control were verified in an independent biological replicate of n=3 technical replicates per dose.
This assay is a direct measure of the ability of compounds of interest to restore ATP production under conditions of inhibition of Complex I of the mitochondrial electron transport chain. As the majority of ATP produced via the electron transport chain is thought to derive from Complex I activity, significant impairment in Complex I function has dire biological consequences. Of note, Complex I mutations are thought to drive pathophysiology in multiple mitochondrial diseases, including Leigh syndrome and Leber's Hereditary Optic Neuropathy (LHON), while diminished Complex I activity and the resultant attenuation of ATP production has been shown in neurodegenerative diseases, including Friedreich's Ataxia, Parkinson's Disease and Huntington's Disease. In brief, most compounds were tested in the Rotenone Oxygraph Assay instead of this assay but only Idebenone was active amongst Omaveloxolone, Idebenone and Vatiquinone.

Structure (SMILES)	EC50 [1] [nM]	activation at 10 µM (HepG2 cells) [%]	EC50 [2] [nM]	Complex I by-pass activity in Rotenone ATP Assay (in words) [3]	EC50 ([3]; Homo sapiens, 1 h, HepG2, 50 micromolar rotenone, 60 minutes, ATP bioluminescence) [nM]	protection against BSO induced cell death (in words) ([2]; BSO Assay, text statement)
COC1=C(OC)C(=O)C(CCC[Si](C)(C)C)=C(C)C1=O [Compound K, 2,3-dimethoxy-5-methyl-6-(3-(trimethylsilyl)propyl)cyclohexa-2,5-diene-1,4-dione]	75	41.4	–	–	–	–
COC1=C(OC)C(=O)C(CCCC(F)(F)F)=C(C)C1=O [Compound I, 2,3-dimethoxy-5-methyl-6-(4,4,4-trifluorobutyl)cyclohexa-2,5-diene-1,4-dione]	479	37.8	772	–	–	–
COC1=C(OC)C(=O)C(CCCCCC(F)(F)F)=C(C)C1=O [Compound E, 2,3-dimethoxy-5-methyl-6-(6,6,6-trifluorohexyl)cyclohexa-2,5-diene-1,4-dione]	135	49	359	–	–	–
COC1=C(OC)C(=O)C(CCCCCC(F)F)=C(C)C1=O [Compound F, 2-(6,6-difluorohexyl)-5,6-dimethoxy-3-methylcyclohexa-2,5-diene-1,4-dione]	146	44.7	689	–	–	–
COC1=C(OC)C(=O)C(C/C=C(\C)CC/C=C(\C)CCC=C(F)F)=C(C)C1=O [Compound B, 2-((2E,6E)-11,11-difluoro-3,7-dimethylundeca-2,6,10-trien-1-yl)-5,6-dimethoxy-3-methylcyclohexa-2,5-diene-1,4-dione]	–	–	199	comparable to that of Idebenone	1020	–
CC1=C(C)C(=O)C(C/C=C(\C)CC/C=C(\C)CCC=C(F)F)=C(C)C1=O [Compound A, 2-((2E,6E)-11,11-difluoro-3,7-dimethylundeca-2,6,10-trien-1-yl)-3,5,6-trimethylcyclohexa-2,5-diene-1,4-dione]	–	–	67.1	–	–	best of the test compounds
CCCCCCCC1=C(C)C(=O)C(OC)=C(OC)C1=O [Compound H, 2-heptyl-5,6-dimethoxy-3-methylcyclohexa-2,5-diene-1,4-dione]	56	41.8	241	–	–	–
COC1=C(OC)C(=O)C(CCCCCCF)=C(C)C1=O [Compound G, 2-(6-fluorohexyl)-5,6-dimethoxy-3-methylcyclohexa-2,5-diene-1,4-dione]	205	42.7	555	–	–	–
CCCCCCCCCCC1=C(C)C(=O)C(OC)=C(OC)C1=O [Compound D, reference compound]	70	30	159	–	–	–
